From patent US9221827B2, “Antimicrobial compounds and methods of making and using the same” (Melinta Therapeutics, Inc., priority 2011, dated 2015)

System: Escherichia coli strain ATCC25922
Experiment: standard microdilution assay to determine minimum inhibitory concentrations (MICs)
Type: cell-based
Outline: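 MICs come from CLSI-guided microdilution in 100 μl, run alongside reference-strain performance standards. Values appear as "+" or "−" relative to 16 micrograms/ml, with "N/A" marking missing data.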

[1] = Escherichia coli strain ATCC25922, standard microdilution assay
[2] = Escherichia coli strain ATCC25922, microdilution

Structure (SMILES) | E. coli ATCC25922 MIC [1] | E. coli ATCC25922 MIC [2]
C[C@H](N)CCCc1cc(OC(F)(F)F)cc(-c2cc3cn(-c4ccc(CN)cc4)c(=O)nc3[nH]2)c1 [Compound 355] | − (a “−” indicates that the compound has an MIC value greater than 16 micrograms/ml) | –
N=C(N)NCCCNCc1ccc(-n2cc3cc(-c4c(F)c(F)cc(CCCCN)c4F)[nH]c3nc2=O)cc1 [Compound 6] | – | + (a “+” indicates that the compound has an MIC value of 16 micrograms/ml or less)
C[C@@H](N)CCCc1cc(-c2cc3cn(-c4ccc(CNCCCNC(=N)N)cc4)c(=O)nc3[nH]2)cc(C(F)(F)F)c1 [Compound 249] | – | + (a “+” indicates that the compound has an MIC value of 16 micrograms/ml or less)
C[C@H](N)CCCc1cc(-c2cc3cn(-c4ccc([C@H](C)NCCCNC(=N)N)cc4)c(=O)nc3[nH]2)cc2c1CCCC2 [Compound 417] | + (a “+” indicates that the compound has an MIC value of 16 micrograms/ml or less) | –
NCCCCc1cc(-c2cc3cn(-c4ccc(CNCCCN=C(N)N)c(F)c4)c(=O)nc3[nH]2)cc(C(F)(F)F)c1 [Compound 80] | – | + (a “+” indicates that the compound has an MIC value of 16 micrograms/ml or less)
CC(C)(N)COCc1cc(-c2cc3cn(-c4ccc(CNCCCNC(=N)N)cc4)c(=O)nc3[nH]2)cc(C(F)(F)F)c1 [Compound 454] | + (a “+” indicates that the compound has an MIC value of 16 micrograms/ml or less) | –
CC(C)c1cc(CCC[C@H](C)N)cc(-c2cc3cn(-c4ccc(CNCCCNC(=N)N)cc4)c(=O)nc3[nH]2)c1Cl [Compound 261] | – | + (a “+” indicates that the compound has an MIC value of 16 micrograms/ml or less)
C=CC(NCCCNC(=N)N)c1ccc(-n2cc3cc(-c4cc(CCCC(C)N)cc(Cl)c4F)[nH]c3nc2=O)cc1 (centres unmarked) [Compound 481] | – | + (a “+” indicates that the compound has an MIC value of 16 micrograms/ml or less)
C[C@H](N)CCCc1cc2c(c(-c3cc4cn(-c5ccc([C@H](C)NCCCNC(=N)N)cc5)c(=O)nc4[nH]3)c1)CCC2=O [Compound 461] | + (a “+” indicates that the compound has an MIC value of 16 micrograms/ml or less) | –
CC(=O)Nc1cc(CCCCN)cc(-c2cc3cn(-c4ccc(CNCCCNC(=N)N)cc4)c(=O)nc3[nH]2)c1 [Compound 41] | – | + (a “+” indicates that the compound has an MIC value of 16 micrograms/ml or less)
COc1cc(F)c(-c2cc3cn(-c4ccc(CNCCCN=C(N)N)cc4)c(=O)nc3[nH]2)cc1CCCCN [Compound 83] | – | + (a “+” indicates that the compound has an MIC value of 16 micrograms/ml or less)
CC(CCN)Cc1cc(SC(F)(F)F)cc(-c2cc3cn(-c4ccc([C@H](C)NCCCNC(=N)N)cc4)c(=O)nc3[nH]2)c1 (some centres unmarked) [Compound 247] | – | + (a “+” indicates that the compound has an MIC value of 16 micrograms/ml or less)
CC(C)c1cc(CCC2(CN)CCC2)cc(-c2cc3cn(-c4ccc(CNCCCNC(=N)N)cc4)c(=O)nc3[nH]2)c1 [Compound 103] | – | + (a “+” indicates that the compound has an MIC value of 16 micrograms/ml or less)
CC(N)CCc1cc(OC(F)(F)F)cc(-c2cc3cn(-c4ccc(CNCCCNC(=N)N)cc4)c(=O)nc3[nH]2)c1 (centres unmarked) [Compound 260] | – | + (a “+” indicates that the compound has an MIC value of 16 micrograms/ml or less)
COc1c(CCCCN)cc(-c2cc3cn(-c4ccc(CNCCCNC(=N)N)cc4)c(=O)nc3[nH]2)cc1OC(F)(F)F [Compound 44] | – | + (a “+” indicates that the compound has an MIC value of 16 micrograms/ml or less)
C[C@H](NCCCNC(=N)N)c1ccc(-n2cc3cc(-c4cc(CCCC(C)(C)N)cc(OC(F)(F)F)c4)[nH]c3nc2=O)cc1 [Compound 264] | – | + (a “+” indicates that the compound has an MIC value of 16 micrograms/ml or less)
N=C(N)NCCCNCc1ccc(-n2cc3cc(-c4cc(OC(F)(F)F)cc(C5CCC(CN)O5)c4)[nH]c3nc2=O)cc1 (centres unmarked) [Compound 435] | + (a “+” indicates that the compound has an MIC value of 16 micrograms/ml or less) | –
